Reference: paper PMC11766795 (Marine Drugs, 2025)

Assays:
pseudotyped virus EBOV = assay: microbe, parasite or virus in culture; assay type: cell-based, Zaire ebolavirus; details: for IC50: Zaire ebolavirus, TZM-bl, read-out: IC50 (µM) Pseudovirus, EBOV
in vitro = details: human
[1] = target: RBD of EBOV-GP (RBD-Fc fusion protein) (Zaire ebolavirus, UniProt Q05320); assay: biochemical; assay type: binding
[2] = tested on: vesicular stomatitis virus (VSV); assay type: cell-based
[3] = tested on: Wild-type EBOV (Makona C07 strain, IRF0192); assay: microbe, parasite or virus in culture; assay type: cell-based, Ebola virus; details: Zaire ebolavirus, Huh-7, 48 h, read-out: IC50 (µM) Infectious Virus, EBOV
pseudotyped MARV = assay: microbe, parasite or virus in culture; assay type: cell-based, Marburg marburgvirus; details: for IC50: Orthomarburgvirus marburgense, TZM-bl, read-out: IC50 (µM) Pseudovirus, MARV
HIV strain, HXBc2 (HX) = assay type: cell-based, Human immunodeficiency virus
MARV (Angola, IRF0202) = assay: cells; assay type: cell-based, Marburg virus; details: Homo sapiens, Huh-7, 24 h, read-out: IC50 (µM) Infectious Virus, MARV
[4] = tested on: amphitropic murine leukemia virus (A-MLV); assay type: cell-based

Chain of RBD of EBOV-GP (RBD-Fc fusion protein) (Q05320 54-201 limits assumed): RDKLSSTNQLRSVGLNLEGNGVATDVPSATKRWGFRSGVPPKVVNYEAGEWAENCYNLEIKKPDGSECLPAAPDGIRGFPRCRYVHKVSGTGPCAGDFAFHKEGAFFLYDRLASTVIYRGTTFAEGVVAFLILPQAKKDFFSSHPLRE

CC(=O)N[C@@H](Cc1c[nH]c2ccccc12)C(=O)O [N-Ac-L-tryptophan, N-Acetyl-L-Tryptophan, reference compound]
Activity in screening against pseudotyped EBOV (pseudotyped virus EBOV): some activity
IC50 (pseudotyped virus EBOV): > 48 µM
CC50 (in vitro): > 60 µM

CC(=O)N[C@H](Cc1c[nH]c2ccccc12)C(=O)O [N-Ac-D-tryptophan, N-Acetyl-D-Tryptophan, reference compound]
Activity in screening against pseudotyped EBOV (pseudotyped virus EBOV): some activity
IC50 (pseudotyped virus EBOV): > 48 µM
CC50 (in vitro): > 60 µM

C[C@@]12NC(=O)[C@H](Cc3c1[nH]c1ccccc31)n1c2nc2ccccc2c1=O [Compound W12, Fumiquinazoline J]
Kd [1]: 91.4 µM
Neutralization of pseudotyped VSV (specificity) [2]: neither of them did so
Activity in screening against pseudotyped EBOV (pseudotyped virus EBOV): modest activities
Neutralization of pseudotyped EBOV in specificity test (pseudotyped virus EBOV): neutralizing
SI, Selectivity index (CC50/IC50), EBOV (pseudotyped virus EBOV): 15
IC50 (pseudotyped virus EBOV): ~1.68 µM
IC50 [3]: 15.3 µM
CC50 (in vitro): 24.8 µM
Activity in screening against pseudotyped MARV (pseudotyped MARV): modest activities
Neutralization of pseudotyped MARV in specificity test (pseudotyped MARV): neutralizing
SI, Selectivity index (CC50/IC50), MARV (pseudotyped MARV): 26
IC50 (pseudotyped MARV): 0.96 µM
Neutralization of pseudotyped HIV (specificity) (HIV strain, HXBc2 (HX)): neither of them did so
IC50 (MARV (Angola, IRF0202)): 64.5 µM
Neutralization of pseudotyped A-MLV (specificity) [4]: neither of them did so

CC(C)=CCC[C@]1(C)[C@@H](O)CC[C@@]2(C)[C@H]1CC[C@H]1Cc3c([nH]c4ccccc34)[C@@]12C [Compound W26, Emindole SB]
Neutralization of pseudotyped VSV (specificity) [2]: neither of them did so
Activity in screening against pseudotyped EBOV (pseudotyped virus EBOV): modest activities
Neutralization of pseudotyped EBOV in specificity test (pseudotyped virus EBOV): neutralizing
SI, Selectivity index (CC50/IC50), EBOV (pseudotyped virus EBOV): 7
IC50 (pseudotyped virus EBOV): ~3.17 µM
IC50 [3]: 49.8 µM
CC50 (in vitro): 20.9 µM
Activity in screening against pseudotyped MARV (pseudotyped MARV): modest activities
Neutralization of pseudotyped MARV in specificity test (pseudotyped MARV): neutralizing
SI, Selectivity index (CC50/IC50), MARV (pseudotyped MARV): 10
IC50 (pseudotyped MARV): 2.15 µM
Neutralization of pseudotyped HIV (specificity) (HIV strain, HXBc2 (HX)): neither of them did so
IC50 (MARV (Angola, IRF0202)): 95.7 µM
Neutralization of pseudotyped A-MLV (specificity) [4]: neither of them did so

CC(=O)OCC(=O)OC1CCC2(C)C(CCC3c4c([nH]c5ccccc45)CC32C)C1(C)CCC=C(C)C (centres unmarked) [Compound W27, Fusaindoterpene B]
Activity in screening against pseudotyped EBOV (pseudotyped virus EBOV): modest activities
SI, Selectivity index (CC50/IC50), EBOV (pseudotyped virus EBOV): 7
IC50 (pseudotyped virus EBOV): ~2.82 µM
IC50 [3]: 33 µM
CC50 (in vitro): 16.3 µM
Activity in screening against pseudotyped MARV (pseudotyped MARV): modest activities
SI, Selectivity index (CC50/IC50), MARV (pseudotyped MARV): 6
IC50 (pseudotyped MARV): 2.63 µM
IC50 (MARV (Angola, IRF0202)): 83.3 µM
